Test results from PMC8044178, “Structural basis of norepinephrine recognition and transport inhibition in neurotransmitter transporters” (Nature Communications, 2021).
Read-outs that look alike come from different tables or passages of the source.

How the values were obtained:
hDAT [1] = conditions: read-out: Uptake Inhibition Ki, hDAT; ref 4 (Supplementary: Vaishnavi et al., 2004); cited from earlier work
dDATmfc = target: T1, dDATmfc (Drosophila melanogaster, UniProt Q7K4Y6, DEL162-202/F471L/L415A/V74A); test: biochemical; conditions: read-out: Percent binding
T1 construct: GFP-8x-His (C); made in house; host or cells: HEK293S GnTI- cells, BacMam baculovirus transduction
Protocol: (§1) Binding assays were performed with 20 nM of purified dDAT protein by scintillation proximity assay. For determining nisoxetine Kd, [^3H] Nisoxetine (Perkin Elmer) (in 1:5 molar ratio) was used in the range of 0.1 nM to 500 nM with 100 µM desipramine added to the control samples. Competition assays were done with 50 nM [^3H] […] The assays were done in 1 mM DDM, 0.2 mM CHS, 20 mM Tris-Cl (pH 8), 300 mM NaCl and 5% glycerol. The background values were subtracted to plot the final curves in GraphPad prism v5.0.1 and the Kd values were calculated. The IC50 values obtained from binding competition assays were used to deduce the Ki values by Cheng–Prusoff’s equation.

hNET [2] = conditions: read-out: Binding Inhibition (Ki), hNET; cited from earlier work
hDAT [3] = target: hDAT; parameters: method as in earlier work; conditions: vs. RTI-55; ref 4 (Supplementary: Vaishnavi et al., 2004); read-out: Binding Inhibition (Ki), hDAT; cited from earlier work
dDATfc A428S = target: T2, dDATfc A428S (Drosophila melanogaster, UniProt Q7K4Y6, A428S/DEL164-191/F471L/L415A/V74A); test: cell-based
T2 construct: expressed in transfected cells; host or cells: HEK293S GnTI- cells, transient transfection with pEG-BacMam plasmid
Protocol: (§2) Earlier studies have posited that non-conserved residues in the primary binding site are responsible for selective inhibition of biogenic amine uptake[57],[58]. […] Effects of these mutations were analyzed through uptake inhibition using the three SNRIs employed in this study (Fig. 6a–c). […] Supplementary Table 2)[56],[59].
(§3) Additional mutations in the subsite B or subsite C were incorporated into this gene used for carrying out the uptake assays.
(§4) Cells were transiently transfected with pEG-BacMam plasmid harboring the dDAT cGFP gene and incubated for 35–40 hrs at 37 °C with 5% CO2 and 80% humidity. […] The transport activity was arrested with 0.5 ml of pre-chilled assay buffer containing 100 μM desipramine (Sigma Aldrich) added to each reaction. The cells were then washed twice with the same buffer before solubilizing them in 0.1 ml of 20 mM DDM for one hour at room temperature. […] Following this, 0.1 ml of the supernatant was added to 0.5 ml of scintillation fluid (Ultima Gold, Perkin Elmer) and the radioactivity was estimated on MicroBeta scintillation counter (Perkin Elmer). […] The background-subtracted, dose–response plots were analyzed using GraphPad Prism v.5.0.1 and Ki values were determined from Cheng–Prusoff’s equation using the IC50 values obtained from the experiments.

dDATfc A117S = target: T3, dDATfc A117S (Drosophila melanogaster, UniProt Q7K4Y6, A117S/DEL164-191/F471L/L415A/V74A); test: cell-based
T3 construct: expressed in transfected cells; host or cells: HEK293S GnTI- cells, transient transfection with pEG-BacMam plasmid
Protocol: as §2, §3, §4

hNET [4] = conditions: read-out: Uptake Inhibition Ki, hNET; cited from earlier work
dDATfc A117S/A428S = target: T4, dDATfc A117S/A428S (Drosophila melanogaster, UniProt Q7K4Y6, A117S/A428S/DEL164-191/F471L/L415A/V74A); test: cell-based; format: cell-based
T4 construct: expressed in transfected cells; host or cells: HEK293S GnTI- cells, transient transfection with pEG-BacMam plasmid
Protocol: as §2, §3, §4

dDATNET = target: T5, dDATNET (Drosophila melanogaster, UniProt Q7K4Y6, D121G/DEL162-202/F471L/L415A/S426M/V74A); test: biochemical; format: binding
T5 construct: GFP-8x-His (C); made in house; host or cells: HEK293S GnTI- cells, BacMam baculovirus transduction
Protocol: as §1

[5] = target: T6, dDATfc (Drosophila melanogaster dopamine transporter functional construct) (Drosophila melanogaster, UniProt Q7K4Y6, DEL164-191/F471L/L415A/V74A); test: cell-based
T6 construct: expressed in transfected cells; host or cells: HEK293S GnTI- cells, transient transfection with pEG-BacMam plasmid
Protocol: as §3, §4

Compound: CCN(CC)C(=O)[C@]1(c2ccccc2)C[C@@H]1CN [Milnacipran, 1R-2S milnacipran]
- Ki (hDAT [1]): > 100000 nM
- remaining activity at 10 µM (dDATmfc; DATmfc, Log Milnacipran (M) -5, replicate values): 21.2%
- remaining activity at 0.03 µM (dDATmfc): 98.1%
- remaining activity at 0.3 µM (dDATmfc): 86.3%
- remaining activity at 3 µM (dDATmfc): 47.5%
- Ki (hNET [2]): 22 ± 2.58 nM
- Ki (hDAT [3]): > 100000 nM
- IC50 (dDATfc A428S): 6600 ± 400 nM
- inhibition at 100 µM (dDATfc A428S; 0.5 h, read-out: Percent inhibition of DA uptake, A428S, Log[compound] M = -4, single replicates): 7.1%
- inhibition at 30 µM (dDATfc A428S; 0.5 h, read-out: Percent inhibition of DA uptake, A428S, Log[compound] M = -4.52288, single replicates): 15.3%
- inhibition at 10 µM (dDATfc A428S; 0.5 h, read-out: Percent inhibition of DA uptake, A428S, Log[compound] M = -5, single replicates): 34.4%
- inhibition at 3 µM (dDATfc A428S; 0.5 h, read-out: Percent inhibition of DA uptake, A428S, Log[compound] M = -5.52288, single replicates): 73.5%
- inhibition at 0.1 µM (dDATfc A428S; 0.5 h, read-out: Percent inhibition of DA uptake, A428S, Log[compound] M = -7, single replicates): 107%
- inhibition at 0.03 µM (dDATfc A428S; 0.5 h, read-out: Percent inhibition of DA uptake, A428S, Log[compound] M = -7.52288, single replicates): 100%
- IC50 (dDATfc A117S): 2800 ± 200 nM
- inhibition at 10 µM (dDATfc A117S; 0.5 h, read-out: Percent inhibition of DA uptake, A117S, Log[compound] M = -5, single replicates): 21.8%
- inhibition at 2.3 µM (dDATfc A117S; 0.5 h, read-out: Percent inhibition of DA uptake, A117S, Log[compound] M = -5.63827, single replicates): 62.3%
- inhibition at 1 µM (dDATfc A117S; 0.5 h, read-out: Percent inhibition of DA uptake, A117S, Log[compound] M = -6, single replicates): 87.2%
- inhibition at 0.1 µM (dDATfc A117S; 0.5 h, read-out: Percent inhibition of DA uptake, A117S, Log[compound] M = -7, single replicates): 99.6%
- inhibition at 0.023 µM (dDATfc A117S; 0.5 h, read-out: Percent inhibition of DA uptake, A117S, Log[compound] M = -7.63827, single replicates): 94.7%
- Ki (hNET [4]): 52 ± 9 nM
- IC50 (dDATfc A117S/A428S): 8900 ± 300 nM
- inhibition at 100 µM (dDATfc A117S/A428S; 0.5 h, read-out: Percent inhibition of DA uptake, A117S_A428S, Log[compound] M = -4, single replicates): 6.51%
- inhibition at 30 µM (dDATfc A117S/A428S; 0.5 h, read-out: Percent inhibition of DA uptake, A117S_A428S, Log[compound] M = -4.52288, single replicates): 16.4%
- inhibition at 10 µM (dDATfc A117S/A428S; 0.5 h, read-out: Percent inhibition of DA uptake, A117S_A428S, Log[compound] M = -5, single replicates): 35.5%
- inhibition at 3 µM (dDATfc A117S/A428S; 0.5 h, read-out: Percent inhibition of DA uptake, A117S_A428S, Log[compound] M = -5.52288, single replicates): 78.6%
- inhibition at 0.3 µM (dDATfc A117S/A428S; 0.5 h, read-out: Percent inhibition of DA uptake, A117S_A428S, Log[compound] M = -6.52288, single replicates): 91.2%
- inhibition at 0.1 µM (dDATfc A117S/A428S; 0.5 h, read-out: Percent inhibition of DA uptake, A117S_A428S, Log[compound] M = -7, single replicates): 87.2%
- inhibition at 0.03 µM (dDATfc A117S/A428S; 0.5 h, read-out: Percent inhibition of DA uptake, A117S_A428S, Log[compound] M = -7.52288, single replicates): 89.7%
- Ki (dDATNET; Binding Ki with dDATNET (vs. Nisoxetine), 50 nM [3H] nisoxetine, Cheng-Prusoff): 605 ± 25.3 nM
- remaining activity at 300 µM (dDATNET; read-out: Percent binding, DAT NET, Log Milnacipran (M) -3.52288, replicate values): 3.09%
- remaining activity at 100 µM (dDATNET; read-out: Percent binding, DAT NET, Log Milnacipran (M) -4, replicate values): 12%
- remaining activity at 30 µM (dDATNET; read-out: Percent binding, DAT NET, Log Milnacipran (M) -4.52288, replicate values): 31.5%
- remaining activity at 10 µM (dDATNET; read-out: Percent binding, DAT NET, Log Milnacipran (M) -5, replicate values): 60%
- remaining activity at 3 µM (dDATNET; read-out: Percent binding, DAT NET, Log Milnacipran (M) -5.52288, replicate values): 78.6%
- IC50 [5]: 2400 ± 100 nM
- Ki [5]: 1500 ± 100 nM
- inhibition at 100 µM ([5]; HEK293S, 0.5 h, read-out: Percent inhibition of DA uptake, dDATfc, Log[compound] M = -4, single replicates): 3.99%
- inhibition at 30 µM ([5]; HEK293S, 0.5 h, read-out: Percent inhibition of DA uptake, dDATfc, Log[compound] M = -4.52288, single replicates): 6.55%
- inhibition at 10 µM ([5]; HEK293S, 0.5 h, read-out: Percent inhibition of DA uptake, dDATfc, Log[compound] M = -5, single replicates): 22.7%
- inhibition at 3 µM ([5]; HEK293S, 0.5 h, read-out: Percent inhibition of DA uptake, dDATfc, Log[compound] M = -5.52288, single replicates): 46.8%
- inhibition at 1 µM ([5]; HEK293S, 0.5 h, read-out: Percent inhibition of DA uptake, dDATfc, Log[compound] M = -6, single replicates): 82.4%
